Results reported in ChEMBL document CHEMBL1201862, “PubChem BioAssay data set” (2004).
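Method: 48-hour compound exposure of cells in 96-well plates, five concentrations, linear interpolation of endpoints. GI50: concentration for 50% inhibition of growth.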 Active and inactive are the calls of the source. No stated cut-off is given here; in the data, active = GI50 up to about 1.1 µM and inactive = higher.

Experiments:
Assay in all cases: NCI tumour cell line growth inhibition, 48 h
A498 = system: A498
A549 = system: A549
CCRF-CEM = system: CCRF-CEM
EKVX = system: EKVX
HCT-116 = system: HCT-116
HT-29 = system: HT-29
Hs-578T = system: Hs-578T
M14 = system: M14
MDA-N = system: MDA-N
NCI-H226 = system: NCI-H226
NCI-H23 = system: NCI-H23
OVCAR-3 = system: OVCAR-3
OVCAR-8 = system: OVCAR-8
RPMI-8226 = system: RPMI-8226
SF-295 = system: SF-295
SK-MEL-2 = system: SK-MEL-2
SNB-75 = system: SNB-75
T47D = system: T47D
HCC 2998 = system: HCC 2998
SR = system: SR

Row | Compound | GI50 (A498) | GI50 (A549) | GI50 (CCRF-CEM) | GI50 (EKVX) | GI50 (HCT-116) | GI50 (HT-29) | GI50 (Hs-578T) | GI50 (M14) | GI50 (MDA-N) | GI50 (NCI-H226) | GI50 (NCI-H23) | GI50 (OVCAR-3) | GI50 (OVCAR-8) | GI50 (RPMI-8226) | GI50 (SF-295) | GI50 (SK-MEL-2) | GI50 (SNB-75) | GI50 (T47D) | GI50 (HCC 2998) | GI50 (SR)
1 | Cc1n2nc(N)sc2n[n+]1Cc1ccccc1 | > 100 µM (inactive) | 70.6 µM (inactive) | > 100 µM (inactive) | 97.5 µM (inactive) | > 100 µM (inactive) | > 100 µM (inactive) | > 100 µM (inactive) | > 100 µM (inactive) | > 100 µM (inactive) | > 100 µM (inactive) | > 100 µM (inactive) | 89.9 µM (inactive) | > 100 µM (inactive) | > 100 µM (inactive) | > 100 µM (inactive) | > 100 µM (inactive) | > 100 µM (inactive) | 38.4 µM (inactive) | – | –
2 | CCOC(=O)c1ccc(Nc2nc3ccccc3nc2C(=O)OCC)cc1 | – | > 100 µM (inactive) | > 100 µM (inactive) | > 100 µM (inactive) | > 100 µM (inactive) | > 100 µM (inactive) | 59.6 µM (inactive) | > 100 µM (inactive) | > 100 µM (inactive) | – | > 100 µM (inactive) | > 100 µM (inactive) | > 100 µM (inactive) | 85.9 µM (inactive) | – | > 100 µM (inactive) | 24.7 µM (inactive) | > 100 µM (inactive) | > 100 µM (inactive) | > 100 µM (inactive)
3 | CC(C)N/C(=N\C#N)NS(=O)(=O)c1cnccc1Nc1ccc(Cl)cc1 | > 100 µM (inactive) | > 100 µM (inactive) | > 100 µM (inactive) | > 100 µM (inactive) | > 100 µM (inactive) | > 100 µM (inactive) | > 100 µM (inactive) | > 100 µM (inactive) | > 100 µM (inactive) | > 100 µM (inactive) | > 100 µM (inactive) | > 100 µM (inactive) | > 100 µM (inactive) | > 100 µM (inactive) | > 100 µM (inactive) | > 100 µM (inactive) | > 100 µM (inactive) | > 100 µM (inactive) | > 100 µM (inactive) | –
4 | N#Cc1c(N2CCN(c3ccc([N+](=O)[O-])cc3)CC2)[n+]([O-])c2ccc(-c3ccc([N+](=O)[O-])cc3)cc2[n+]1[O-] | > 100 µM (inactive) | 2.49 µM (inactive) | 1.28 µM (inactive) | 7.28 µM (inactive) | 4.56 µM (inactive) | > 67.6 µM (inactive) | > 75.2 µM (inactive) | 19.2 µM (inactive) | 31.8 µM (inactive) | 33 µM (inactive) | > 31 µM (inactive) | > 19.8 µM (inactive) | 1.62 µM (inactive) | 5.02 µM (inactive) | 8.51 µM (inactive) | > 37.2 µM (inactive) | > 26.9 µM (inactive) | 3.58 µM (inactive) | – | –
5 | COc1ccc(P2(=S)OC(C)(C)C(C)(C)O2)cc1 | – | > 100 µM (inactive) | > 100 µM (inactive) | > 100 µM (inactive) | > 100 µM (inactive) | > 100 µM (inactive) | > 100 µM (inactive) | > 100 µM (inactive) | > 100 µM (inactive) | > 100 µM (inactive) | > 100 µM (inactive) | > 100 µM (inactive) | > 100 µM (inactive) | – | > 100 µM (inactive) | > 100 µM (inactive) | > 100 µM (inactive) | 6.93 µM (inactive) | – | > 100 µM (inactive)
6 | CCCCCCCCCc1c(O)c(O)c(CCCCCCCCC)c(CCCCCCCCC)c1CCCCCCCCC | > 100 µM (inactive) | > 100 µM (inactive) | 31 µM (inactive) | > 100 µM (inactive) | > 100 µM (inactive) | > 100 µM (inactive) | > 100 µM (inactive) | > 100 µM (inactive) | 50.6 µM (inactive) | > 100 µM (inactive) | > 100 µM (inactive) | 37.9 µM (inactive) | > 100 µM (inactive) | > 100 µM (inactive) | > 100 µM (inactive) | > 100 µM (inactive) | – | > 100 µM (inactive) | > 100 µM (inactive) | –
7 | Cc1ccc(S(=O)(=O)N(CC(O)c2ccccc2)c2ccccc2F)cc1 (configuration not stated) | 19.9 µM (inactive) | 19.5 µM (inactive) | 25.3 µM (inactive) | 35.6 µM (inactive) | 12.7 µM (inactive) | 19.3 µM (inactive) | 16.9 µM (inactive) | 16.4 µM (inactive) | 15.7 µM (inactive) | 20.7 µM (inactive) | 16.6 µM (inactive) | 11.3 µM (inactive) | 19.3 µM (inactive) | 17 µM (inactive) | 17.5 µM (inactive) | 17.9 µM (inactive) | 12.3 µM (inactive) | 14.5 µM (inactive) | 24.2 µM (inactive) | –
8 | CN(C)/C=C/c1ccnc2c1C(=O)c1ccccc1C2=O | 31.9 µM (inactive) | 8.99 µM (inactive) | 16.5 µM (inactive) | 18.3 µM (inactive) | 3.22 µM (inactive) | 14.8 µM (inactive) | 2.78 µM (inactive) | 1.92 µM (inactive) | 1.32 µM (inactive) | 10.5 µM (inactive) | 2.48 µM (inactive) | 3.74 µM (inactive) | 15.5 µM (inactive) | 3.48 µM (inactive) | 4.56 µM (inactive) | 3.65 µM (inactive) | 5.33 µM (inactive) | > 48.4 µM (inactive) | 7.64 µM (inactive) | –
9 | CC(C)(C)C(=O)N(C(=S)OCc1ccccn1)c1ccccc1 | > 100 µM (inactive) | – | 22.6 µM (inactive) | 15.5 µM (inactive) | 23.1 µM (inactive) | 27.6 µM (inactive) | 39 µM (inactive) | 39.4 µM (inactive) | 41.6 µM (inactive) | 67.8 µM (inactive) | 35.3 µM (inactive) | 30.9 µM (inactive) | 31.6 µM (inactive) | 12.2 µM (inactive) | – | 20.6 µM (inactive) | – | 20 µM (inactive) | – | –
10 | CC1C(c2cc(C(C)(C)C)c(O)c(C(C)(C)C)c2)c2cc3c(cc2OC1N1CCOCC1)OCO3 (configuration not stated) | – | 16.6 µM (inactive) | > 100 µM (inactive) | 23.9 µM (inactive) | 13.7 µM (inactive) | 19.2 µM (inactive) | 3.13 µM (inactive) | 17.5 µM (inactive) | 26.9 µM (inactive) | – | 28.1 µM (inactive) | 15.8 µM (inactive) | 19.1 µM (inactive) | 26.9 µM (inactive) | 15.3 µM (inactive) | 23.7 µM (inactive) | 4.34 µM (inactive) | 21.4 µM (inactive) | 12.9 µM (inactive) | 64.7 µM (inactive)
11 | O=C1/C(=C/c2ccc([N+](=O)[O-])cc2)Sc2scc(-c3cccc([N+](=O)[O-])c3)[n+]21 | 3.13 µM (inactive) | 22.2 µM (inactive) | 0.364 µM (active) | 6.7 µM (inactive) | 4.6 µM (inactive) | 2.31 µM (inactive) | 8.81 µM (inactive) | 3.78 µM (inactive) | 4.35 µM (inactive) | 11.5 µM (inactive) | 7.93 µM (inactive) | 4.24 µM (inactive) | 6.11 µM (inactive) | 3.01 µM (inactive) | 14.2 µM (inactive) | 13.9 µM (inactive) | 10.6 µM (inactive) | 3.35 µM (inactive) | 5.56 µM (inactive) | –
12 | CN1C2CCC1C(C(O)c1ccccc1[N+](=O)[O-])C(=O)C2 (configuration not stated) | > 100 µM (inactive) | > 100 µM (inactive) | 46.9 µM (inactive) | > 100 µM (inactive) | 32.3 µM (inactive) | 32.4 µM (inactive) | 53.2 µM (inactive) | 35.2 µM (inactive) | 27 µM (inactive) | 24.2 µM (inactive) | 73.8 µM (inactive) | 34.7 µM (inactive) | 31.6 µM (inactive) | 40.8 µM (inactive) | 58.1 µM (inactive) | > 100 µM (inactive) | – | 26.6 µM (inactive) | > 100 µM (inactive) | –
13 | N=C(CC(=O)NOC(=O)c1ccccc1)NOC(=O)c1ccccc1 | 31.4 µM (inactive) | 32.4 µM (inactive) | 38 µM (inactive) | 30.9 µM (inactive) | 38.6 µM (inactive) | > 100 µM (inactive) | 36.2 µM (inactive) | > 100 µM (inactive) | 33.6 µM (inactive) | 12.8 µM (inactive) | 69.7 µM (inactive) | 96.8 µM (inactive) | 27.9 µM (inactive) | 74.6 µM (inactive) | 18.4 µM (inactive) | – | – | > 100 µM (inactive) | – | –
14 | C=CC1(c2ccc3ccccc3c2)OCC(CC)(CC)CO1 | – | 33.9 µM (inactive) | 20.3 µM (inactive) | – | 21.3 µM (inactive) | 20.3 µM (inactive) | 18.7 µM (inactive) | 19.9 µM (inactive) | 29.3 µM (inactive) | 16.4 µM (inactive) | 20.1 µM (inactive) | 25.2 µM (inactive) | 48.3 µM (inactive) | 57.7 µM (inactive) | 25.8 µM (inactive) | 17.7 µM (inactive) | 47.6 µM (inactive) | 22.5 µM (inactive) | 20.9 µM (inactive) | –
15 | CC(C)(C)c1ccc(OCC(=O)O)c(Cl)c1 | > 100 µM (inactive) | > 100 µM (inactive) | > 100 µM (inactive) | > 100 µM (inactive) | > 100 µM (inactive) | > 100 µM (inactive) | > 100 µM (inactive) | > 100 µM (inactive) | > 100 µM (inactive) | > 100 µM (inactive) | > 100 µM (inactive) | 60.4 µM (inactive) | > 100 µM (inactive) | > 100 µM (inactive) | > 100 µM (inactive) | > 100 µM (inactive) | > 100 µM (inactive) | > 100 µM (inactive) | > 100 µM (inactive) | –
